Read-outs that look alike come from different tables or passages of the source.
Tests used:
[1] = system: Beet Armyworm (Spodoptera exigua) ("BAW"), second instar larvae; experiment: Bioassay on beet armyworm (BAW), 128-well diet tray assay; assay type: in vivo; conditions: for pest or weed control at 50 µg/cm2: Spodoptera exigua; for BAW rating: Table ABC, species BAW, C = not tested, D = no activity noticed
How it was run: (§1)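 After sealing with a clear self-adhesive lid, the trays are incubated at 25° C. with 14 h light and 10 h dark for 5 to 7 days; mortality in each well is recorded as a percentage and averaged across the eight wells.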

[2] = system: Cabbage Looper (Trichoplusia ni) ("CL"), second instar larvae; experiment: Bioassay on cabbage looper (CL), 128-well diet tray assay; assay type: in vivo; conditions: for pest or weed control at 50 µg/cm2: Trichoplusia ni; for CL rating: Table ABC, species CL, C = not tested, D = no activity noticed
How it was run: as §1

[3] = read-out: BAW (Biological Results, rating)
[4] = read-out: CL (Biological Results, rating)

**Q.** What does the source list for `Cc1ccc(COCC(F)(F)F)c(N2C(=O)CS/C2=N\C(=O)Nc2ccc(-c3ncn(-c4ccc(OC(F)(F)F)cc4)n3)cc2Br)c1` [Compound J222, (Z)-1-(2-Bromo-4-(1-(4-(trifluoromethoxy)phenyl)-1H-1,2,4-triazol-3-yl)phenyl)-3-(3-(5-methyl-2-((2,2,2-trifluoroethoxy)methyl)phenyl)-4-oxothiazolidin-2-ylidene)urea]?
**A.** pest or weed control at 50 µg/cm2 [1, 3]: 50 to 100%; pest or weed control at 50 µg/cm2 [2, 4]: 50 to 100%

**Q.** With `N#Cc1ccc(OCCC(F)(F)F)c(N2C(=O)CS/C2=N\C(=O)Nc2ccc(-c3ncn(-c4ccc([S+]([O-])C(F)(F)F)cc4)n3)cc2F)c1` (stereo not drawn) [Compound J385, (Z)-1-(3-(5-Cyano-2-(3,3,3-trifluoropropoxy)phenyl)-4-oxothiazolidin-2-ylidene)-3-(2-fluoro-4-(1-(4-((trifluoromethyl)sulfinyl)phenyl)-1H-1,2,4-triazol-3-yl)phenyl)urea] as the compound, how does the pest or weed control at 50 µg/cm2 ([1]; read-out: BAW rating) read?
**A.** 50 to 100%

**Q.** What about the pest or weed control at 50 µg/cm2 ([2]; read-out: CL rating) of the same compound?
**A.** 50 to 100%

**Q.** What does the source list for `CCOCc1ccc(C)cc1N1C(=O)CS/C1=N\C(=O)Nc1ccc(-c2ncn(-c3ccc(S(F)(F)(F)(F)F)cc3)n2)cc1F` [Compound J445]?
**A.** BAW rating [1]: A (50-100); CL rating [2]: A (50-100)

**Q.** With `Cc1ccc(OCCC(F)(F)F)c(N2C(=O)CS/C2=N\C(=O)Nc2ccc(-c3cn(-c4ccc(S(F)(F)(F)(F)F)cc4)cn3)cc2F)c1` [Compound J597, (Z)-1-(2-Fluoro-4-(1-(4-(pentafluoro-λ^6-sulfaneyl)phenyl)-1H-imidazol-4-yl)phenyl)-3-(3-(5-methyl-2-(3,3,3-trifluoropropoxy)phenyl)-4-oxothiazolidin-2-ylidene)urea] as the compound, how does the pest or weed control at 50 µg/cm2 ([1]; read-out: BAW rating) read?
**A.** 50 to 100%

**Q.** What about the pest or weed control at 50 µg/cm2 ([2]; read-out: CL rating) of the same compound?
**A.** 50 to 100%

**Q.** Which pest or weed control at 50 µg/cm2 ([1]; read-out: BAW rating) does the source give for `CN(C)c1ccc(C(F)(F)F)c(N2C(=O)CS/C2=N\C(=O)Nc2ccc(-c3cn(-c4ccc(S(F)(F)(F)(F)F)cc4)cn3)cc2F)c1` [Compound J600, (Z)-1-(3-(5-(Dimethylamino)-2-(trifluoromethyl)phenyl)-4-oxothiazolidin-2-ylidene)-3-(2-fluoro-4-(1-(4-(pentafluoro-λ^6-sulfaneyl)phenyl)-1H-imidazol-4-yl)phenyl)urea] here?
**A.** 50 to 100%

**Q.** What about the pest or weed control at 50 µg/cm2 ([2]; read-out: CL rating) of the same compound?
**A.** 50 to 100%

**Q.** `CC(C)c1cc(F)c(N(C)C)cc1N1C(=O)CS/C1=N\C(=O)Nc1ccc(-c2ncn(-c3ccc(S(=O)(=O)C(F)(F)F)cc3)n2)cc1F` [Compound J371, (Z)-1-(3-(5-(dimethylamino)-4-fluoro-2-isopropylphenyl)-4-oxothiazolidin-2-ylidene)-3-(2-fluoro-4-(1-(4-((trifluoromethyl)sulfonyl)phenyl)-1H-1,2,4-triazol-3-yl)phenyl)urea] was tested. Which pest or weed control at 50 µg/cm2 ([1]; read-out: BAW rating) did it give?
**A.** 50 to 100%

**Q.** What about the pest or weed control at 50 µg/cm2 ([2]; read-out: CL rating) of the same compound?
**A.** 50 to 100%

**Q.** How did the pest or weed control at 50 µg/cm2 ([1]; read-out: BAW rating) turn out when `COCc1ccc(C)cc1N1C(=O)CS/C1=N\C(=O)Nc1ccc(-c2noc(-c3ccc(OC(F)(F)F)cc3)n2)cc1F` [Compound J772, (Z)-1-(2-Fluoro-4-(5-(4-(trifluoromethoxy)phenyl)-1,2,4-oxadiazol-3-yl)phenyl)-3-(3-(2-(methoxymethyl)-5-methylphenyl)-4-oxothiazolidin-2-ylidene)urea] was run?
**A.** 50 to 100%

**Q.** What about the pest or weed control at 50 µg/cm2 ([2]; read-out: CL rating) of the same compound?
**A.** 50 to 100%

**Q.** `CCc1ccc(C)cc1N1C(=O)CS/C1=N\C(=O)Nc1ccc(-c2ncn(-c3ccc(OC(F)(F)C(F)(F)F)cc3)n2)c(C)c1` [Compound J14, (Z)-1-(3-(2-Ethyl-5-methylphenyl)-4-oxothiazolidin-2-ylidene)-3-(3-methyl-4-(1-(4-(perfluoroethoxy)phenyl)-1H-1,2,4-triazol-3-yl)phenyl)urea] was tested. Which pest or weed control at 50 µg/cm2 [1, 3] did it give?
**A.** 50 to 100%

**Q.** What about the pest or weed control at 50 µg/cm2 [2, 4] of the same compound?
**A.** 50 to 100%

**Q.** Which BAW rating [1] does the source give for `CCCOCc1ccc(C)cc1N1C(=O)CS/C1=N\C(=O)Nc1ccc(-c2ncn(-c3ccc(OC(F)(F)F)cc3)n2)cc1C` [Compound J546] here?
**A.** A (50-100)

**Q.** And the CL rating [2]?
**A.** A (50-100)

**Q.** With `CC(C)c1ccc(N(C)C)cc1N1C(=O)CS/C1=N\C(=O)Nc1ccc(-c2ncn(-c3ccc(OC(F)(F)F)cc3)n2)cc1C#N` [Compound J242, (Z)-1-(2-Cyano-4-(1-(4-(trifluoromethoxy)phenyl)-1H-1,2,4-triazol-3-yl)phenyl)-3-(3-(5-(dimethylamino)-2-isopropylphenyl)-4-oxothiazolidin-2-ylidene)urea] as the compound, how does the pest or weed control at 50 µg/cm2 [1, 3] read?
**A.** 50 to 100%

**Q.** What about the pest or weed control at 50 µg/cm2 [2, 4] of the same compound?
**A.** 50 to 100%

**Q.** With `CCOC(C)c1ccc(C)cc1N1C(=O)CS/C1=N\C(=O)Nc1ccc(-c2cn(-c3ccc(OC(F)(F)F)cc3)cn2)cc1C` (stereo not drawn) [Compound J486, (Z)-1-(3-(2-(1-Ethoxyethyl)-5-methylphenyl)-4-oxothiazolidin-2-ylidene)-3-(2-methyl-4-(1-(4-(trifluoromethoxy)phenyl)-1H-imidazol-4-yl)phenyl)urea] as the compound, how does the pest or weed control at 50 µg/cm2 ([1]; read-out: BAW rating) read?
**A.** 50 to 100%

**Q.** And the pest or weed control at 50 µg/cm2 ([2]; read-out: CL rating)?
**A.** 50 to 100%

**Q.** Which pest or weed control at 50 µg/cm2 ([1]; read-out: BAW rating) does the source give for `Cc1ccc(COCc2ccccc2F)c(N2C(=O)CS/C2=N\C(=O)Nc2ccc(-c3ncn(-c4ccc(OC(F)(F)F)cc4)n3)cc2F)c1` [Compound J635, (Z)-1-(2-Fluoro-4-(1-(4-(trifluoromethoxy)phenyl)-1H-1,2,4-triazol-3-yl)phenyl)-3-(3-(2-(((2-fluorobenzyl)oxy)methyl)-5-methylphenyl)-4-oxothiazolidin-2-ylidene)urea] here?
**A.** 50 to 100%

**Q.** And the pest or weed control at 50 µg/cm2 ([2]; read-out: CL rating)?
**A.** 50 to 100%

**Q.** For `CC(C)c1cc(N(C)C)ccc1N1C(=O)CS/C1=N\C(=O)Nc1ccc(-c2ncn(-c3ccc(OC(F)(F)F)cc3)n2)cc1F` [Compound J112, (Z)-1-(3-(4-(Dimethylamino)-2-isopropylphenyl)-4-oxothiazolidin-2-ylidene)-3-(2-fluoro-4-(1-(4-(trifluoromethoxy)phenyl)-1H-1,2,4-triazol-3-yl)phenyl)urea], which pest or weed control at 50 µg/cm2 [1, 3] is on record?
**A.** 50 to 100%

**Q.** And the pest or weed control at 50 µg/cm2 [2, 4]?
**A.** 50 to 100%

**Q.** How did the pest or weed control at 50 µg/cm2 [1, 3] turn out when `Cc1ccc(COCC(F)(F)F)c(N2C(=O)CS/C2=N\C(=O)Nc2ccc(-c3ncn(-c4ccc(C(F)(F)F)cn4)n3)cc2C)c1` [Compound J297, (Z)-1-(3-(5-Methyl-2-((2,2,2-trifluoroethoxy)methyl)phenyl)-4-oxothiazolidin-2-ylidene)-3-(2-methyl-4-(1-(5-(trifluoromethyl)pyridin-2-yl)-1H-1,2,4-triazol-3-yl)phenyl)urea] was run?
**A.** 50 to 100%

**Q.** What about the pest or weed control at 50 µg/cm2 [2, 4] of the same compound?
**A.** 50 to 100%

**Q.** With `Cc1ccc(COCC(C)(F)F)c(N2C(=O)CS/C2=N\C(=O)Nc2ccc(-c3ncn(-c4ccc(OC(F)(F)F)cc4)n3)cc2C)c1` [Compound J534] as the compound, how does the BAW rating [1] read?
**A.** A (50-100)

**Q.** What about the CL rating [2] of the same compound?
**A.** A (50-100)

**Q.** How did the pest or weed control at 50 µg/cm2 ([1]; read-out: BAW rating) turn out when `CC(C)c1ccc(N(C)C)cc1N1C(=O)CS/C1=N\C(=O)Nc1ccc(-c2nnc(-c3ccc(OC(F)(F)F)cc3)o2)cc1F` [Compound J431, (Z)-1-(3-(5-(Dimethylamino)-2-isopropylphenyl)-4-oxothiazolidin-2-ylidene)-3-(2-fluoro-4-(5-(4-(trifluoromethoxy)phenyl)-1,3,4-oxadiazol-2-yl)phenyl)urea] was run?
**A.** 50 to 100%

**Q.** What about the pest or weed control at 50 µg/cm2 ([2]; read-out: CL rating) of the same compound?
**A.** 50 to 100%

**Q.** How did the pest or weed control at 50 µg/cm2 [1, 3] turn out when `CCOCc1ccc(C)cc1N1C(=O)CS/C1=N\C(=O)Nc1ccc(-c2ncn(-c3ccc(OC(F)(F)F)cc3)n2)cc1C(F)F` [Compound J214, (Z)-1-(2-(Difluoromethyl)-4-(1-(4-(trifluoromethoxy)phenyl)-1H-1,2,4-triazol-3-yl)phenyl)-3-(3-(2-(ethoxymethyl)-5-methylphenyl)-4-oxothiazolidin-2-ylidene)urea] was run?
**A.** 50 to 100%

**Q.** And the pest or weed control at 50 µg/cm2 [2, 4]?
**A.** 50 to 100%

**Q.** `COC(C)c1ccc(C)cc1N1C(=O)CS/C1=N\C(=O)Nc1ccc(-c2ncn(-c3ccc(S(=O)(=O)C(F)(F)F)cc3)n2)cc1F` (stereo not drawn) [Compound J361, (Z)-1-(2-Fluoro-4-(1-(4-((trifluoromethyl)sulfonyl)phenyl)-1H-1,2,4-triazol-3-yl)phenyl)-3-(3-(2-(1-methoxyethyl)-5-methylphenyl)-4-oxothiazolidin-2-ylidene)urea] was tested. Which pest or weed control at 50 µg/cm2 ([1]; read-out: BAW rating) did it give?
**A.** 50 to 100%

**Q.** And the pest or weed control at 50 µg/cm2 ([2]; read-out: CL rating)?
**A.** 50 to 100%

**Q.** How did the “BAW (Biological Results, rating)” value ([1]; Beet Armyworm (Spodoptera exigua), C = Not Tested) turn out when `COCc1ccc(C)cc1N1C(=O)CS/C1=N\C(=O)Nc1ccc(-c2ncn(-c3ccc(C(F)F)cn3)n2)cc1F` [Compound J345] was run?
**A.** A (50-100)

**Q.** What about the “CL (Biological Results, rating)” value ([2]; Cabbage Looper (Trichoplusia ni), C = Not Tested) of the same compound?
**A.** A (50-100)

**Q.** What does the source list for `COc1ccc(COCC(F)(F)F)c(N2C(=O)CS/C2=N\C(=O)Nc2ccc(-c3ncn(-c4ccc(S(F)(F)(F)(F)F)cc4)n3)cc2F)c1` [Compound J565]?
**A.** BAW rating [1]: A (50-100); CL rating [2]: A (50-100)

**Q.** `COCc1ccc(N(C)C)cc1N1C(=O)CS/C1=N\C(=O)Nc1ccc(-c2ncn(-c3ccc(S(=O)(=O)C(F)(F)F)cc3)n2)cc1F` [Compound J671, (Z)-1-(3-(5-(Dimethylamino)-2-(methoxymethyl)phenyl)-4-oxothiazolidin-2-ylidene)-3-(2-fluoro-4-(1-(4-((trifluoromethyl)sulfonyl)phenyl)-1H-1,2,4-triazol-3-yl)phenyl)urea] was tested. Which pest or weed control at 50 µg/cm2 ([1]; read-out: BAW rating) did it give?
**A.** 50 to 100%

**Q.** And the pest or weed control at 50 µg/cm2 ([2]; read-out: CL rating)?
**A.** 50 to 100%

**Q.** How did the BAW rating [1] turn out when `COc1cc(COCC(F)(F)F)c(N2C(=O)CS/C2=N\C(=O)Nc2ccc(-c3ncn(-c4ccc(S(F)(F)(F)(F)F)cc4)n3)cc2F)cc1OC` [Compound J561] was run?
**A.** A (50-100)

**Q.** And the CL rating [2]?
**A.** A (50-100)

**Q.** How did the BAW rating [1] turn out when `CCOCc1ccc(C)cc1N1C(=O)CS/C1=N\C(=O)Nc1ccc(-c2ncn(-c3ccc(S(F)(F)(F)(F)F)cc3)n2)cc1C` [Compound J548] was run?
**A.** A (50-100)

**Q.** And the CL rating [2]?
**A.** A (50-100)

**Q.** Which pest or weed control at 50 µg/cm2 [1, 3] does the source give for `CCCc1ccc(N(C)C)cc1N1C(=O)CS/C1=N\C(=O)Nc1ccc(-c2ncn(-c3ccc(OC(F)(F)F)cn3)n2)cc1F` [Compound J258, (Z)-1-(3-(5-(Dimethylamino)-2-propylphenyl)-4-oxothiazolidin-2-ylidene)-3-(2-fluoro-4-(1-(5-(trifluoromethoxy)pyridin-2-yl)-1H-1,2,4-triazol-3-yl)phenyl)urea] here?
**A.** 50 to 100%

**Q.** And the pest or weed control at 50 µg/cm2 [2, 4]?
**A.** 50 to 100%

From patent publication US20230077362A1 (CORTEVA AGRISCIENCE LLC, priority 2019, published 2023)
